The target of the test is Tyrosine-protein phosphatase non-receptor type 22 (Homo sapiens) (UniProt Q9Y2R2). Nature of the test: LYP phosphatase inhibition for selectivity, dose response, selectivity assay for LMPTP inhibitor project, biochemical, fluorescence, LYP catalytic domain (AID 652006). The note with it: His-LYP catalytic domain, OMFP fluorescence, 50 min.

Molecules are shown by their SMILES. Active and inactive are the calls of the source.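 How the source made its calls: active means compounds that inhibit the LYP-1 phosphatase with IC50 at or below 20 µM; inactive means the rest.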

The source of these data is PubChem BioAssay AID652006 (Sanford-Burnham Center for Chemical Genomics, 2013).

In general, IC50 refers to the point on the concentration scale where inhibition reaches its midpoint.

Sequence of Tyrosine-protein phosphatase non-receptor type 22 (Homo sapiens) (Q9Y2R2 whole entry, looked up, the tested form may be a part): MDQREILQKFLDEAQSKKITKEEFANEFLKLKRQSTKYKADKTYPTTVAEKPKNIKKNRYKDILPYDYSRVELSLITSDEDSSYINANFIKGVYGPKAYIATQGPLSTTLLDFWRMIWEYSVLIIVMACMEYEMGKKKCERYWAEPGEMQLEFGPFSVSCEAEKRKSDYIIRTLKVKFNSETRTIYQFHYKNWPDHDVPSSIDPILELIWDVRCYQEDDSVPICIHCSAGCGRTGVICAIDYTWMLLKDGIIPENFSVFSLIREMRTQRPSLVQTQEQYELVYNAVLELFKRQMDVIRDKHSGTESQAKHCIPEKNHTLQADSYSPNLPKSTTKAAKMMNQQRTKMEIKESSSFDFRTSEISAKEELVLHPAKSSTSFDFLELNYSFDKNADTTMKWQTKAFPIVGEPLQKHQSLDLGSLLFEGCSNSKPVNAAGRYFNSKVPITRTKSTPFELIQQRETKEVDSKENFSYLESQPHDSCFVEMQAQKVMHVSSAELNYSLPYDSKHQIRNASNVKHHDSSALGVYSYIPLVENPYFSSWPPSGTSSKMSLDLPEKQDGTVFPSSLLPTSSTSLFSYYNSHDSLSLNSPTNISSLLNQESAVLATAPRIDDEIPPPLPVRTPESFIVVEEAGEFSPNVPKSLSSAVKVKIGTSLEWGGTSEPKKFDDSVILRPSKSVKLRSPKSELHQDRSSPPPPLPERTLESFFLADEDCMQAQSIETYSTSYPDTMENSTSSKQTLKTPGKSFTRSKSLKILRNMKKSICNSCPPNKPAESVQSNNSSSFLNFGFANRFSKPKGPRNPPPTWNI

As for `Clc1cccc(Cl)c1Cn1cnc(=NCc2ccco2)c2[nH]cnc21`, the IC50 was > 80 µM (inactive).
